Measured values from the NIST ThermoML archive (doi:10.1021/je700755t).
± gives the expanded uncertainty stated by the source.

Assays:
[1] = 101 kPa, Liquid; for viscosity: Capillary tube (Ostwald / Ubbelohde) method
[2] = xn = mol fraction of the nth substance listed; conditions: 101 kPa, Liquid, x2 = 0; for viscosity: Capillary tube (Ostwald / Ubbelohde) method

O=CO [formic acid]
[1]
Conditions | mass density [kg/m3] | viscosity [mPa·s]
303.15 K | 1205.07 ± 0.96 | 1.437 ± 0.013
313.15 K | 1192.81 ± 0.92 | 1.205 ± 0.012
323.15 K | 1180.63 ± 0.89 | 1.022 ± 0.01
333.15 K | 1167.44 ± 0.85 | 0.879 ± 0.009
343.15 K | 1154.99 ± 0.82 | 0.766 ± 0.009
353.15 K | 1142.08 ± 0.78 | 0.677 ± 0.008

CN(C)C=O [dimethylformamide]
[1]
Conditions | mass density [kg/m3] | viscosity [mPa·s]
303.15 K | 939.45 ± 0.34 | 0.76 ± 0.008
313.15 K | 929.86 ± 0.36 | 0.675 ± 0.007
323.15 K | 920.92 ± 0.38 | 0.608 ± 0.007
333.15 K | 910.64 ± 0.41 | 0.552 ± 0.007
343.15 K | 901.72 ± 0.43 | 0.502 ± 0.007
353.15 K | 891.44 ± 0.45 | 0.46 ± 0.007

CN(C)C=O [dimethylformamide] + O=CO
[2]
Conditions | mass density [kg/m3] | viscosity [mPa·s]
303.15 K | 939.45 ± 0.34 | 0.76 ± 0.008
313.15 K | 929.86 ± 0.36 | 0.675 ± 0.007
323.15 K | 920.92 ± 0.38 | 0.608 ± 0.007
333.15 K | 910.64 ± 0.41 | 0.552 ± 0.007
343.15 K | 901.72 ± 0.43 | 0.502 ± 0.007
353.15 K | 891.44 ± 0.45 | 0.46 ± 0.007

CC(=O)O [acetic acid]
[1]
Conditions | mass density [kg/m3] | viscosity [mPa·s]
303.15 K | 1038.66 ± 0.42 | 1.059 ± 0.009
313.15 K | 1027.37 ± 0.39 | 0.92 ± 0.009
323.15 K | 1016.08 ± 0.35 | 0.804 ± 0.008
333.15 K | 1005.04 ± 0.32 | 0.709 ± 0.008
343.15 K | 993.69 ± 0.32 | 0.632 ± 0.007
353.15 K | 982.95 ± 0.35 | 0.57 ± 0.007

CN(C)C=O [dimethylformamide] + CC(=O)O
[2]
Conditions | mass density [kg/m3] | viscosity [mPa·s]
303.15 K | 939.45 ± 0.45 | 0.76 ± 0.008
313.15 K | 929.86 ± 0.48 | 0.675 ± 0.007
323.15 K | 920.92 ± 0.5 | 0.608 ± 0.007
333.15 K | 910.64 ± 0.54 | 0.552 ± 0.007
343.15 K | 901.72 ± 0.56 | 0.502 ± 0.007
353.15 K | 891.44 ± 0.6 | 0.46 ± 0.007
